Reference: PubChem BioAssay AID1626 (SRMLSC, 2009)

System: M. tuberculosis H37Rv growth inhibition
Experiment: M. tuberculosis H37Rv growth inhibitors, H37Rv strain (AID 1626)
Details: for CC50: measured here: Vero cell cytotoxicity; for IC90: measured here: IC90 against H37Rv

Row | SMILES | CC50 [µM] | IC50 [µM] | IC90 [µM]
1 | COc1ccc(-c2cc3nc(C)c(CCC(=O)NCc4ccc(F)cc4)c(C)n3n2)c(OC)c1 | > 40 | – | –
2 | CCOc1ccc(NC(=O)CCSc2ccc3ccccc3n2)cc1 | – | 6.54 | > 100
3 | CCOC(=O)c1ccc(NC(=O)c2cc3ccccc3o2)cc1 | – | 4.67 | > 100
4 | CCOC(=O)c1cnc(-n2nc(C)cc2C)nc1NC(C)c1ccccc1 (stereo not drawn) | 36 | 1.06 | 2.08
5 | COc1ccc(Cn2c(SCc3ccc(C)cc3)nc3cc(OC)c(OC)cc3c2=N)cc1Cl | 3.1 | 2.5 | 3.09
6 | CCOc1ccc(N2C(=O)c3ccccc3C2=O)cc1 | – | – | > 100
7 | CN(C)c1ccc(O)c2c1CC1CC3[C@@H](N(C)C)C(=O)C(C(N)=O)=C(O)[C@]3(O)C(=O)C1=C2O (stereo partly drawn) | > 40 | 3.14 | 7.87
8 | Cn1ncc2c(Nc3cccc(Cl)c3)nc(Nc3cccc(Cl)c3)nc21 | 26.9 | 11.7 | 23.6
9 | Cc1nn2c(NCCCn3ccnc3)cc(C(C)C)nc2c1-c1ccccc1 | 26.4 | 7.66 | 11.9
10 | COc1ccc(-c2nnc(NC(=O)C3=COCCO3)o2)cc1 | > 40 | 12.7 | 19.7
11 | Cc1ccccc1-n1ncc2c([N+](=O)[O-])cc([N+](=O)[O-])cc21 | > 40 | 2.97 | 4.48
12 | CCCCn1c(O)c(C(CC)=Nc2ccc(OCC)cc2)c(=O)[nH]c1=O | > 40 | 7.89 | > 100
13 | Cc1c(Cl)c([N+](=O)[O-])nn1CCCC(=O)Nc1cc(Oc2ccccc2)cc([N+](=O)[O-])c1 | 28.7 | 6.86 | 10.5
14 | Cc1cc(C)c2c(n1)sc1c(N3CCCCC3)ncnc12 | – | 16.7 | > 100
15 | c1ccc(CCNc2ccnc3cc4ccccc4cc23)cc1 | 8.57 | 1.5 | 1.69
16 | Cc1ccc(C)c(SCC(=O)OC/C(O)=C(\C#N)c2nc3ccccc3[nH]2)c1 | > 40 | 3.09 | 4.9
17 | CCOc1ccc(-n2cc(-c3ccccc3)c3c(SC(C)C(=O)OC)ncnc32)cc1 (stereo not drawn) | – | 6.4 | > 100
18 | C(=C\c1nc(N2CCCCCC2)c2ccccc2n1)/c1ccccc1 | 37.5 | 8.43 | 11.1
19 | O=C1/C(=C/c2ccccc2[N+](=O)[O-])COc2ccccc21 | 5.95 | 2.9 | 3.25
20 | Cc1ccccc1NC(=O)Nc1ccc(C(F)(F)F)cc1 | 23.5 | – | > 100
21 | CCOC(=O)CNC(=O)CSc1nc(-c2ccccc2)ns1 | – | 1.48 | 3.2
22 | CCOc1ccc2nc(NC(=O)c3cnc(C)cn3)sc2c1 | 40 | 4.76 | > 100
23 | O=C(Nc1nc(-c2ccc(F)cc2)cs1)c1cnccn1 | > 40 | – | > 100
24 | CCOC(=O)c1ccc(N2CSC3=C(C#N)C(c4ccc(OC)cc4OC)CC(=O)N3C2)cc1 (stereo not drawn) | – | 41.8 | > 100
25 | CCOC(=O)c1ccc(-n2c(CN(CC)CC)nc3ccc([N+](=O)[O-])cc3c2=O)cc1 | – | 54.1 | > 100
26 | O=C(CSCc1ccc(Cl)cc1)Nc1ccc(-c2nnc(-c3ccccc3)o2)cc1 | 6.18 | – | –

Row | SMILES | CC50 [µM] | IC50 [µM] | IC90 [µM]
27 | O=C(Nc1ccc(C(F)(F)F)cc1)N1CCN(c2ccnc3cc(Cl)ccc23)CC1 | 8.22 | 8.62 | 15.4
28 | CCOc1ccc(N=C/C=C/c2ccccc2)c(O)c1 | 38 | 0.939 | 5.41
29 | COc1ccc(C(=O)Nc2cc(OC)c(NC(=O)c3ccco3)cc2OC)cc1 | – | 2.85 | 9.59
30 | Cc1ccc(N2CCN(C(=O)Nc3cccc([N+](=O)[O-])c3)CC2C)cc1 (stereo not drawn) | > 40 | 27.1 | > 100
31 | CNC(=O)c1nnsc1S(=O)(=O)c1ccc(Cl)cc1 | 8.55 | 21.6 | 22.2
32 | CCN1CCN(Cc2ccc(NC(=O)c3ccc(C)c(NC(=O)C(=O)c4c[nH]c5ccccc45)c3)cc2C(F)(F)F)CC1 | 6.73 | 4.32 | 5.57
33 | CCCCCC(=O)Nc1ccc(-c2csc(C)n2)cc1 | – | 46 | > 100
34 | CCC(=O)Nc1cccc(C(=O)/C=C/c2ccccc2)c1 | 10.7 | 22.1 | 28.2
35 | O=C(NCCC1=CCCCC1)NC12CC3CC(CC(C3)C1)C2 | – | < 0.195 | 67.6
36 | Cc1[nH]n(-c2ccccc2)c(=S)c1C=NCCCN=Cc1c(C)[nH]n(-c2ccccc2)c1=S | – | < 0.391 | > 100
37 | COc1cccc2c1C(=O)c1c(O)c3c(c(O)c1C2=O)C[C@@](O)(C(=O)CO)C[C@@H]3O[C@H]1C[C@H](N)[C@@H](O)[C@H](C)O1 | 7.47 | 14.9 | 26.4
38 | O=[N+]([O-])c1cc(-c2n[nH]c(-c3ccccc3)n2)cc([N+](=O)[O-])c1 | > 40 | 28.4 | > 100
39 | O=C(C1CCN(c2nnc(-n3cccc3)s2)CC1)N1CCN(c2cccc(C(F)(F)F)c2)CC1 | > 40 | 0.258 | 1.05
40 | CC(C)(C)c1ccc(C(=O)CC(=O)c2cc(Cl)ccc2O)cc1 | 12.4 | 2.67 | 3.14
41 | Cc1ccc(NC(=O)COc2ccc(-n3ccnc3)cc2)cc1Cl | – | 3.82 | 12.2
42 | OC(COC(c1ccc(Cl)cc1)c1ccc(Cl)cc1)CN1CCN(c2ccccn2)CC1 (stereo not drawn) | 35.3 | 9.79 | 28.3
43 | O=[N+]([O-])c1ccc(Sc2cccc3cccnc23)c([N+](=O)[O-])c1 | 4.55 | 32.9 | > 100
44 | O=C(COc1ccc2c(C(F)(F)F)cc(=O)oc2c1)NCc1cccs1 | – | 14.8 | > 100
45 | O=C(Nc1nc(-c2cc(F)ccc2F)cs1)c1ccccn1 | 21.2 | 3.8 | 67.8
46 | COC(=O)c1cc(Sc2cccc(Cl)c2Cl)ccn1 | – | 11.4 | 17
47 | CN1C[C@@H]2C(c3ccc(C(F)(F)F)cc3)C3(c4cccnc4)CC2(C3)[C@H]1c1ccccc1 (stereo partly drawn) | – | 14.1 | 21.4
48 | Cc1ccc(Oc2cc(NC(=O)CCCn3nc(C)c([N+](=O)[O-])c3C)cc([N+](=O)[O-])c2)cc1 | > 40 | 2.33 | 3.34
49 | COc1cccc(C2C(C(=O)Nc3nc4ccccc4s3)=C(C)NC3=C2C(=O)CC(C)(C)C3)c1OC (stereo not drawn) | > 40 | – | > 100
50 | CC(=O)C1=C(C)NC(SCC(=O)c2ccc(Cl)c(Cl)c2)=C(C#N)C1c1ccco1 (stereo not drawn) | > 40 | 5.85 | 6.67
51 | CCc1nnc(NC(=O)c2cccc(C(=O)Nc3nnc(CC)s3)n2)s1 | 3.62 | – | 1.09
52 | Cc1ccc(CN2CCSc3ccc(C(=O)NC4CCN(Cc5ccccc5)CC4)cc32)cc1 | 18.4 | – | –

Row | SMILES | CC50 [µM] | IC50 [µM] | IC90 [µM]
53 | COc1ccccc1-c1nnc(NC(=O)c2ccc3ncsc3c2)o1 | 24.3 | 4.17 | > 100
54 | COc1cc(-c2ccc3oc(-c4ccsc4)c(C#CC4(O)CCCCC4)c3c2)cc(OC)c1OC | > 40 | 3.77 | > 100
55 | COc1ccc(CN2CCN(CC(O)Cn3c4ccccc4c4ccccc43)CC2)cc1 (stereo not drawn) | 15 | 5.34 | 8.3
56 | CC(=O)N1CCN(c2cc3c(cc2F)c(=O)c(C(=O)O)cn3C2CC2)CC1 | – | 0.949 | 1.56
57 | COc1ccc(NC(C)c2cc(Cl)ccc2O)cc1 (stereo not drawn) | – | – | > 100
58 | Cc1nccc(-c2ccc(-n3c(C)ccc3C)cc2)n1 | > 40 | – | > 100
59 | Cc1cc(Cl)ccc1OCCCC(=O)NO | 35.7 | 28.6 | > 100
60 | CN1c2ccc([N+](=O)[O-])cc2CC2(C(=O)NC(=O)N(c3ccc(Br)cc3)C2=O)C1c1ccccc1 (stereo not drawn) | > 40 | 0.964 | > 100
61 | CCOC(=O)/C=C/C(=O)Nc1ccc(Oc2ccccc2)cc1 | > 40 | 1.2 | > 100
62 | COc1ccccc1/C=C/CN1CCCC(CO)(Cc2cccc(Cl)c2)C1 (stereo not drawn) | > 40 | 10.9 | 16.4
63 | COC(=O)C1C2c3ccccc3OC1(C)N=c1s/c(=C/c3cnn(C)c3C)c(=O)n12 (stereo not drawn) | – | 2.43 | 17.7
64 | O=C(Nc1ncc(Cc2ccc(C(F)(F)F)cc2)s1)c1ccc(-c2cccc([N+](=O)[O-])c2)o1 | > 40 | 60.2 | > 100
65 | c1ccc(-c2nc(N3CCCCCC3)c3ccccc3n2)nc1 | 4.21 | 0.304 | 0.318
66 | N#C/C(=C/c1cn(-c2ccccc2)nc1-c1cccc(OCc2ccc(F)cc2)c1)C(=O)NCCCn1ccnc1 | 22.5 | 4.19 | 6.45
67 | O=C(CSc1nnc(-c2ccccc2Br)o1)N1CCc2ccccc2C1 | – | 2.32 | 3.38
68 | CCCOc1ccc(-c2nc(C#N)c(NCCCn3ccnc3)o2)cc1 | > 40 | 15 | > 100
69 | O=c1nc(/C=C/c2ccc(-c3ccc(F)cc3)o2)cc(C(F)(F)F)[nH]1 | > 40 | 10.4 | > 100
70 | O=C(Nc1nccs1)c1cn(-c2ccccc2)nc1-c1ccccc1 | > 40 | – | > 100
71 | CCOC(=O)CSc1nnc(-c2ccc(Cl)cc2Cl)o1 | – | < 0.391 | 9.47
72 | CCOc1ccc(N=Cc2c(O)n(-c3cc(C)cc(C)c3)c(=O)[nH]c2=O)cc1 | – | < 0.195 | > 100
73 | COC(=O)CSc1nnc(-c2ccc(OC)c(OC)c2)o1 | – | 1.43 | 5.53
74 | CCN(CC)CCOC(=O)c1ccc(N/C=C(/C#N)c2nc(-c3ccc4c(c3)OCO4)cs2)cc1 | 7.2 | 13.5 | 22.6
75 | CCN1CCN(c2cc3c(cc2F)c(=O)c(C(=O)O)cn3C2CC2)CC1 | – | < 0.391 | < 0.391
76 | CCN(CC)c1ccc(N=Cc2ccc([N+](=O)[O-])o2)cc1 | > 40 | 8.8 | 45.6
77 | COc1cc(-c2nc3ccc4ccccc4c3c3c2CCC3)cc(OC)c1O | > 40 | 13.1 | 18.8
